biological target: T1, human PDE5 (Homo sapiens, UniProt O76074); experiment: Inhibition of the type 5 phosphodiesterase (PDE5) activity, modified SPA test with platelet lysate; assay type: biochemical; conditions: PDE5 from human platelet lysate, 0.5 μM cGMP
T1 construct: from tissue; host or cells: platelets from fresh blood of human donors (lysate, 10,000 g supernatant)
In short: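 Human platelet lysate (10,000 g supernatant) as PDE5 source in SPA with 0.5 μM cGMP plus [3H]cGMP tracer, pH 7.4, 5 mM Mg2+, 1 μM motapizone and 10 nM PDE2 inhibitor; 10–20% conversion. 5 min preincubation, 15 min at 37 °C, stopped with SPA beads/IBMX. IC50 by non-linear regression.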

**Q.** Which IC50 does the source give for `Cc1ccc(OCC2CC2)c(-c2ncnc3c(C(=O)N[C@H]4CC[C@H](NC(=O)[C@H](C)O)CC4)c[nH]c23)c1` [Example 244, trans-4-(2-Cyclopropylmethoxy-5-methyl-phenyl)-5H-pyrrolo[3,2-d]pyrimidine-7-carboxylic acid [4-((S)-2-hydroxy-propionylamino)-cyclohexyl]-amide] here?
**A.** 1.95 nM

**Q.** With `Cc1ccc(OCC2CC2)c(-c2ncnc3c(C(=O)N[C@H]4CC[C@H](NC(=O)C5(O)CC5)CC4)c[nH]c23)c1` [Example 245, trans-4-(2-Cyclopropylmethoxy-5-methyl-phenyl)-5H-pyrrolo[3,2-d]pyrimidine-7-carboxylic acid {4-[(1-hydroxy-cyclopropanecarbonyl)-amino]-cyclohexyl}-amide] as the compound, how does the IC50 read?
**A.** 1.15 nM

**Q.** With `Cc1ccc(OCC2CC2)c(-c2ncnc3c(C(=O)NC4CCN(C(=O)CO)CC4)c[nH]c23)c1` [Example 246, 4-(2-Cyclopropylmethoxy-5-methyl-phenyl)-5H-pyrrolo[3,2-d]pyrimidine-7-carboxylic acid [1-(2-hydroxy-acetyl)piperidin-4-yl]-amide] as the compound, how does the IC50 read?
**A.** 3.63 nM

**Q.** `Cc1ccc(OCC2CC2)c(-c2ncnc3c(C(=O)NC4CCN(C(=O)[C@H](C)O)CC4)c[nH]c23)c1` [Example 247, 4-(2-Cyclopropylmethoxy-5-methyl-phenyl)-5H-pyrrolo[3,2-d]pyrimidine-7-carboxylic acid [1-((S)-2-hydroxy-propionyl)piperidin-4-yl]-amide] was tested. Which IC50 did it give?
**A.** 2.34 nM

**Q.** With `Cc1ccc(OCC2CC2)c(-c2ncnc3c(C(=O)NC4CCN(C(=O)C5(O)CC5)CC4)c[nH]c23)c1` [Example 248, 4-(2-Cyclopropylmethoxy-5-methyl-phenyl)-5H-pyrrolo[3,2-d]pyrimidine-7-carboxylic acid [1-(1-hydroxy-cyclopropanecarbonyl)-piperidin-4-yl]-amide] as the compound, how does the IC50 read?
**A.** 1.1 nM

**Q.** How did the IC50 turn out when `CCOc1ccc2c(c1-c1ncnc3c(C(=O)NC4CCN(C(=O)[C@H](C)O)CC4)c[nH]c13)OCO2` [Example 249, 4-(5-Ethoxy-benzo[1,3]dioxol-4-yl)-5H-pyrrolo[3,2-d]pyrimidine-7-carboxylic acid [1-((S)-2-hydroxy-propionyl)-piperidin-4-yl]-amide] was run?
**A.** 2.14 nM

**Q.** How did the IC50 turn out when `CCOc1ccc2c(c1-c1ncnc3c(C(=O)N[C@@H]4CCN(C(=O)[C@H](C)O)C4)c[nH]c13)OCO2` [Example 250, 4-(5-Ethoxy-benzo[1,3]dioxol-4-yl)-5H-pyrrolo[3,2-d]pyrimidine-7-carboxylic acid [(R)-1-((S)-2-hydroxy-propionyl)-pyrrolidin-3-yl]amide] was run?
**A.** 4.79 nM

**Q.** With `CCCOc1ccc2c(c1-c1ncnc3c(C(=O)NC4CCN(C(=O)[C@H](C)O)CC4)c[nH]c13)OCO2` [Example 251, 4-(5-Propoxy-benzo[1,3]dioxol-4-yl)-5H-pyrrolo[3,2-d]pyrimidine-7-carboxylic acid [1-((S)-2-hydroxy-propionyl)piperidin-4-yl]-amide] as the compound, how does the IC50 read?
**A.** 0.363 nM

**Q.** Which IC50 does the source give for `CCCOc1ccc2c(c1-c1ncnc3c(C(=O)N[C@@H]4CCN(C(=O)[C@H](C)O)C4)c[nH]c13)OCO2` [Example 252, 4-(5-Propoxy-benzo[1,3]dioxol-4-yl)-5H-pyrrolo[3,2-d]pyrimidine-7-carboxylic acid [(R)-1-((S)-2-hydroxy-propionyl)-pyrrolidin-3-yl]amide] here?
**A.** 1.2 nM

**Q.** `CCCCOc1ccc2c(c1-c1ncnc3c(C(=O)NC4CCN(C(=O)[C@H](C)O)CC4)c[nH]c13)OCO2` [Example 253, 4-(5-Butoxy-benzo[1,3]dioxol-4-yl)-5H-pyrrolo[3,2-d]pyrimidine-7-carboxylic acid [1-((S)-2-hydroxy-propionyl)-piperidin-4-yl]-amide] was tested. Which IC50 did it give?
**A.** 0.17 nM

**Q.** With `CCCCOc1ccc2c(c1-c1ncnc3c(C(=O)N[C@@H]4CCN(C(=O)[C@H](C)O)C4)c[nH]c13)OCO2` [Example 254, 4-(5-Butoxy-benzo[1,3]dioxol-4-yl)-5H-pyrrolo[3,2-d]pyrimidine-7-carboxylic acid [(R)-1-((S)-2-hydroxy-propionyl)-pyrrolidin-3-yl]amide] as the compound, how does the IC50 read?
**A.** 0.589 nM

**Q.** `COCCOc1cc(OC)ccc1-c1ncnc2c(C(=O)N[C@H]3CC[C@H](NC(=O)CO)CC3)c[nH]c12` [Example 255, trans-4-[4-Methoxy-2-(2-methoxy-ethoxy)-phenyl]-5H-pyrrolo[3,2-d]pyrimidine-7-carboxylic acid [4-(2-hydroxy-acetylamino)-cyclohexyl]-amide] was tested. Which IC50 did it give?
**A.** 13.5 nM

**Q.** How did the IC50 turn out when `COCCOc1cc(OC)ccc1-c1ncnc2c(C(=O)N[C@H]3CC[C@H](NC(=O)[C@H](C)O)CC3)c[nH]c12` [Example 256, trans-4-[4-Methoxy-2-(2-methoxy-ethoxy)-phenyl]-5H-pyrrolo[3,2-d]pyrimidine-7-carboxylic acid [4-((S)-2-hydroxy-propionylamino)-cyclohexyl]-amide] was run?
**A.** 12 nM

**Q.** For `COCCOc1cc(OC)ccc1-c1ncnc2c(C(=O)N[C@H]3CC[C@H](NC(=O)C4(O)CC4)CC3)c[nH]c12` [Example 257, trans-4-[4-Methoxy-2-(2-methoxy-ethoxy)-phenyl]-5H-pyrrolo[3,2-d]pyrimidine-7-carboxylic acid {-[(1-hydroxy-cyclopropanecarbonyl)-amino]-cyclohexyl}-amide], which IC50 is on record?
**A.** 9.33 nM

**Q.** For `COCCOc1cc(OC)ccc1-c1ncnc2c(C(=O)N[C@H]3CC[C@@H](NC(=O)C4(O)CC4)CC3)c[nH]c12` [Example 258, cis-4-[4-Methoxy-2-(2-methoxy-ethoxy)-phenyl]-5H-pyrrolo[3,2-d]pyrimidine-7-carboxylic acid {-[(1-hydroxy-cyclopropanecarbonyl)-amino]-cyclohexyl}-amide], which IC50 is on record?
**A.** 6.31 nM

**Q.** How did the IC50 turn out when `COCCOc1cc(OC)ccc1-c1ncnc2c(C(=O)NC3CCN(C(=O)C4(O)CC4)CC3)c[nH]c12` [Example 259, 4-[4-Methoxy-2-(2-methoxy-ethoxy)-phenyl]-5H-pyrrolo[3,2-d]pyrimidine-7-carboxylic acid [1-(1-hydroxy-cyclopropanecarbonyl)-piperidin-4-yl]-amide] was run?
**A.** 8.51 nM

**Q.** With `COCCOc1ccc2c(c1-c1ncnc3c(C(=O)N[C@H]4CC[C@H](NC(=O)CO)CC4)c[nH]c13)OCO2` [Example 260, trans-4-[5-(2-Methoxy-ethoxy)-benzo[1,3]dioxol-4-yl]-5H-pyrrolo[3,2-d]pyrimidine-7-carboxylic acid [4-(2-hydroxy-acetylamino)-cyclohexyl]-amide] as the compound, how does the IC50 read?
**A.** 4.79 nM

**Q.** With `COCCOc1ccc2c(c1-c1ncnc3c(C(=O)N[C@H]4CC[C@@H](NC(=O)CO)CC4)c[nH]c13)OCO2` [Example 261, cis-4-[5-(2-Methoxy-ethoxy)-benzo[1,3]dioxol-4-yl]-5H-pyrrolo[3,2-d]pyrimidine-7-carboxylic acid [4-(2-hydroxy-acetylamino)-cyclohexyl]-amide] as the compound, how does the IC50 read?
**A.** 11 nM

**Q.** For `COCCOc1ccc2c(c1-c1ncnc3c(C(=O)N[C@H]4CC[C@@H](NC(=O)[C@H](C)O)CC4)c[nH]c13)OCO2` [Example 262, cis-4-[5-(2-Methoxy-ethoxy)-benzo[1,3]dioxol-4-yl]-5H-pyrrolo[3,2-d]pyrimidine-7-carboxylic acid [4-((S)-2-hydroxy-propionylamino)-cyclohexyl]-amide], which IC50 is on record?
**A.** 9.33 nM

**Q.** With `COCCOc1ccc2c(c1-c1ncnc3c(C(=O)NC4CCN(C(=O)[C@H](C)O)CC4)c[nH]c13)OCO2` [Example 263, 4-[5-(2-Methoxy-ethoxy)-benzo[1,3]dioxol-4-yl]-5H-pyrrolo[3,2-d]pyrimidine-7-carboxylic acid [1-((S)-2-hydroxy-propionyl)piperidin-4-yl]-amide] as the compound, how does the IC50 read?
**A.** 10 nM
